# From PMC11222350, “Preclinical evaluation of [^18F]FP-CIT, the radiotracer targeting dopamine transporter for diagnosing Parkinson’s disease: pharmacokinetic and efficacy analysis” (EJNMMI Research, 2024)
# Like-named read-outs stand apart in the source and are kept apart here.
# Experiments:
# dopamine transporter [1] = tested on: dopamine transporter; design: method as in PMID 30028339, PMID 23758882, PMID 15908232; settings: cited from earlier work
# [2] = design: method as in earlier work; settings: cited from earlier work
# serotonin transporter = settings: cited from earlier work
# [3] = Metabolites of cold authentic FP-CIT in normal rats (LC-MS); format: in vivo, Sprague–Dawley rats; settings: FP-CIT 5 mg/kg i.v.; for presence in brain samples: 30 and 60 min
# Protocol: Male Sprague–Dawley Rats (group III) were anesthetized with 2% isoflurane in oxygen, and cold authentic FP-CIT dissolved in 10% DMSO normal saline diluent was intravenously injected via the tail vein (5 mg/kg; 5 mg/mL). Rats were sacrificed at different time points (30 and 60 min after injection, n = 3 each), and the tissues of interest (i.e., blood, urine, brain, and liver) were harvested. One rat injected with 10% DMSO in normal saline was used as the negative control. Plasma obtained from the blood samples was centrifuged at 3000 rpm for 10 min at room temperature. Urine samples were collected from the urinary bladder using a 1 mL syringe at specific time points. After adding ice-cold acetonitrile at a volume of onefold (v/v) for each plasma and urine sample obtained, the samples were centrifuged at 12,000 rpm for 5 min at 4 °C and the supernatant was collected. The brain and liver tissues were separately homogenized in 1 mL of a 0.9% normal saline/acetonitrile (95:5 v/v) solution using a homogenizer. The obtained homogenate was deproteinized using 500 μL of acetonitrile and centrifuged (4 °C, 12,000 rpm, 10 min), followed by collecting the supernatant. The supernatants obtained by centrifuging the blood, brain, liver, and urine samples were filtered with 2 mL of acetonitrile using a 0.45 μm UHP syringe filter to remove residues. Compounds identified as FP-CIT metabolites in a previous study were modified to a cold-fluorine-authentic form and used as positive controls. The filtered samples were analyzed qualitatively and quantitatively based on the positive controls.
# The ISQEM LC–MS system (Thermo Fisher, Waltham, MA, USA) equipped with OptimaPak C18 (5 μm, 4.6 × 250 mm) column was used. The HPLCf elution condition (A: 0.1% (v/v) trifluoroacetic acid, B: acetonitrile) was as follows: a gradient elution; 90% (A), 10% (B) (0 min) → 40% (A), 60% (B) (35 min); and a flow rate of 1 mL/min. The injection volume of each sample was 20 μL. Electrospray ionization mass was scanned in both the positive and negative modes. Mass range (amu) was 100–2000; dwell times, 0.1 s; source voltage, 3000 V (positive) and − 2000 V (negative); and vaporizer temperature, 550 °C; nitrogen was used as nebulizing gas. For analysis, the masses of [M + H]^+ of cold authentic FP-CIT administrated and metabolites were extracted from the obtained total ion chromatogram, and Gaussian distribution curve fitting was conducted.
# [4] = cited from earlier work
# dopamine transporter [5] = settings: PET scanning; cited from earlier work
smiles,measurement,setting,value
COC(=O)[C@H]1[C@@H](c2ccc([123I])cc2)C[C@@H]2CC[C@H]1N2CCCF [[^123I]FP-CIT],correlation (R) with dopamine transporter IHC,dopamine transporter [1],0.88
same,injected dose excreted,"[2]; till 6 h post-injection, male Wistar rats",approximately 10%
same,injected dose excreted,"[2]; until 72 h, animals",more than 80%
COC(=O)C1C2CCC(CC1c1ccc(I)cc1)N2 (stereo not drawn) [nor-β-CIT],affinity for serotonin transporter relative to FP-CIT,serotonin transporter,higher affinity for serotonin transporter than FP-CIT
same,"metabolite distribution in blood, brain, liver, urine EIC",[3]; 30 min after administration,mainly observed in all the EIC of metabolic pathways
"COC(=O)C1C(c2ccc(I)cc2)CC2CCC1N2CCCF (stereo not drawn) [FP-CIT, N-(3-fluoropropyl)-2β-carboxymethoxy-3β-(4-iodophenyl) nortropane]","metabolite distribution in blood, brain, liver, urine EIC",[3]; 30 min after administration,mainly observed in all the EIC of metabolic pathways
COC(=O)[C@H]1C(c2ccc([123I])cc2)C[C@@H]2CC[C@H]1N2C (stereo partly drawn) [[^123I]β-CIT],correlation (R) with TH IHC,dopamine transporter [1],0.911
same,correlation (R) with dopamine transporter IHC,dopamine transporter [1],0.936
O=C(O)C1C(c2ccc(I)cc2)CC2CCC1N2CCCF (centres unmarked) [FP-CIT-acid],amount relative to other forms,[4],< 0.3%
same,blood–brain barrier penetration,[4],cannot penetrate the blood–brain barrier
same,presence in brain samples,[3],Neither FP-CIT-acid nor nor-β-CIT-acid was observed in the brain samples
same,"metabolite distribution, urine",[3]; 30 min after administration,most distinctly observed in the urine samples
O=C(O)C1C2CCC(CC1c1ccc(I)cc1)N2 (stereo not drawn) [nor-β-CIT-acid],blood–brain barrier penetration,[4]; low-lipophilic metabolite of [^123I]FP-CIT,difficulty penetrating the BBB
same,presence in brain samples,[3],Neither FP-CIT-acid nor nor-β-CIT-acid was observed in the brain samples
same,metabolite distribution,[3]; 60 min post-injection,"appeared in the blood, urine, and liver samples"
[11CH3]OC(=O)C1C(c2ccc(I)cc2)CC2CCC1N2CCCF (centres unmarked) [[^11C]FP-CIT],time of transient equilibrium in time activity curves (specific binding to the striatum),dopamine transporter [5],70 to 90 min
CN1[C@H]2CC[C@@H]1[C@@H](CN(CC[S-])CC[N-]CC[S-])[C@@H](c1ccc(Cl)cc1)C2.[O]=[99Tc+4] [[^99mTc]TRODAT-1],correlation (R) with TH IHC,dopamine transporter [1],0.899
